# Assay results taken from patent US20230265116A1, “DEGRADATION OF (EGFR) BY CONJUGATION OF EGFR INHIBITORS WITH E3 LIGASE LIGAND AND METHODS OF USE” (BEIGENE, LTD., priority 2020, published 2023).
# Key:
# [1] = target: T1, EGFR L858R/T790M/C797S (BaF3-LTC cells) (Homo sapiens, UniProt P00533, C797S/L858R/T790M); test: EGFR degradation HTRF assay, BaF3-LTC cells; type: cell-based; conditions: BaF3-LTC cells; for DC50: EGFR degradation, IC50 (DC50) from curve fit, read-out: DC50(nM) BaF3-LTC; for Dmax: maximum percentage of inhibition (degradation), read-out: Dmax (%) BaF3-LTC
# T1 construct: expressed in transfected cells; host or cells: BaF3
# Method: (§1) BaF3 WT(wild type), BaF3-LTC(L858R/T790M/C797S) and BaF3-DTC(Del19/T790M/C797S) cells are treated with compounds diluted in 0.2% DMSO cell culture medium and incubate for 16h, 37° C., 5% CO2, H1975-#36, H1975-#28, H1975-#23 and HCC827 cells are treated with compounds diluted in 0.2% DMSO cell culture medium on day 2, incubate for 16h, 37° C., 5% CO2.the final concentriation of compounds in all assay is start with 10 uM, 5-fold dilution, total 8 doses were included.
# (§2) After 16h treatment, add HTRF lysis buffer to each well; seal the plate and incubate 1 hour at room temperature on a plate shaker; Once the cells are lysed, 16 μL of cell lysate are transferred to a PE 384-well HTRF detection plate; 4 μL of pre-mixed HTRF antibodies are added to each well; Cover the plate with a plate sealer, spin 1000 rpm for 1 min, Incubate overnight at room temperature; Read on BMG PheraStar with HTRF protocol (337 nm-665 nm-620 nm).
# (§3) The inhibition (degradation) percentage of the compound was calculated by the following equation: Inhibition percentage of Compound=100-100×(Signal-low control)/(High control-low control), wherein signal=each test compound group
# (§4) High control=Cell group with added DMSO and without compound, indicating microplate readings without EGFR degradation;
# (§5) Dmax is the maximum percentage of inhibition (degradation).
# (§6) The IC50 (DC50) value of a compound can be obtained by fitting the following equation
# (§7) Y=Bottom+(TOP−Bottom)/(1+((IC50/X)^hillslope))
# (§8) Wherein, X and Y are known values, and IC50, Hillslope, Top and Bottom are the parameters obtained by fitting with software. Y is the inhibition percentage (calculated from the equation), X is the concentration of the compound; IC50 is the concentration of the compound when the 50% inhibition is reached. The smaller the IC50 value is, the stronger the inhibitory ability of the compound is. Vice versa, the higher the IC50 value is, the weaker the inhibitory ability of the compound is; Hillslope represents the slope of the fitted curve, generally around 1*; Bottom represents the minimum value of the curve obtained by data fitting, which is generally 0%±20%; Top represents the maximum value of the curve obtained by data fitting, which is generally 100%±20%. The experimental data were fitted by calculating and analyzing with Dotmatics data analysis software.
# [2] = system: EGFR Del19/T790M/C797S (H1975-clone #28); test: EGFR degradation HTRF assay, H1975-clone #28 DTC cells; type: cell-based; conditions: H1975 # 28 DTC cells; for DC50: EGFR degradation, IC50 (DC50) from curve fit, read-out: DC50(nM) H1975 # 28 DTC; for Dmax (%) H1975 # 28 DTC: maximum percentage of inhibition (degradation)
# Method: H1975-clone #28(Del19/T790M/C797S) and H1975-clone #23(Del19/C797S). EGFR-Del19/T790M/C797S and EGFR-Del19/C797S were stably expressed in H1975 cell lines by lentivirus-mediated over-expression, respectively. The EGFR over-expressed cells then underwent gene knockout, in which the EGFR targeting sgRNA was designed to only target the endogenous EGFR copies and preserve the exogenous EGFR copies. Followed by the gene knockout, the edited H1975 cells were seeded in 96 well plates at the concentration of 1 cell/well, cultured for about 2 weeks to allow single clones formation. The formed clones were screened by DNA sequencing and whole exon sequencing analysis for the desired edition. H1975-clone #28 and H1975-clone #23 were finally confirmed as homozygous Del19/T790M/C797S EGFR and Del19/C797S EGFR clones, respectively.
# as §1, §2, §3, §4, §5, §6, §7, §8
# T1 sequence (P00533 25-1210 T790M/C797S/L858R): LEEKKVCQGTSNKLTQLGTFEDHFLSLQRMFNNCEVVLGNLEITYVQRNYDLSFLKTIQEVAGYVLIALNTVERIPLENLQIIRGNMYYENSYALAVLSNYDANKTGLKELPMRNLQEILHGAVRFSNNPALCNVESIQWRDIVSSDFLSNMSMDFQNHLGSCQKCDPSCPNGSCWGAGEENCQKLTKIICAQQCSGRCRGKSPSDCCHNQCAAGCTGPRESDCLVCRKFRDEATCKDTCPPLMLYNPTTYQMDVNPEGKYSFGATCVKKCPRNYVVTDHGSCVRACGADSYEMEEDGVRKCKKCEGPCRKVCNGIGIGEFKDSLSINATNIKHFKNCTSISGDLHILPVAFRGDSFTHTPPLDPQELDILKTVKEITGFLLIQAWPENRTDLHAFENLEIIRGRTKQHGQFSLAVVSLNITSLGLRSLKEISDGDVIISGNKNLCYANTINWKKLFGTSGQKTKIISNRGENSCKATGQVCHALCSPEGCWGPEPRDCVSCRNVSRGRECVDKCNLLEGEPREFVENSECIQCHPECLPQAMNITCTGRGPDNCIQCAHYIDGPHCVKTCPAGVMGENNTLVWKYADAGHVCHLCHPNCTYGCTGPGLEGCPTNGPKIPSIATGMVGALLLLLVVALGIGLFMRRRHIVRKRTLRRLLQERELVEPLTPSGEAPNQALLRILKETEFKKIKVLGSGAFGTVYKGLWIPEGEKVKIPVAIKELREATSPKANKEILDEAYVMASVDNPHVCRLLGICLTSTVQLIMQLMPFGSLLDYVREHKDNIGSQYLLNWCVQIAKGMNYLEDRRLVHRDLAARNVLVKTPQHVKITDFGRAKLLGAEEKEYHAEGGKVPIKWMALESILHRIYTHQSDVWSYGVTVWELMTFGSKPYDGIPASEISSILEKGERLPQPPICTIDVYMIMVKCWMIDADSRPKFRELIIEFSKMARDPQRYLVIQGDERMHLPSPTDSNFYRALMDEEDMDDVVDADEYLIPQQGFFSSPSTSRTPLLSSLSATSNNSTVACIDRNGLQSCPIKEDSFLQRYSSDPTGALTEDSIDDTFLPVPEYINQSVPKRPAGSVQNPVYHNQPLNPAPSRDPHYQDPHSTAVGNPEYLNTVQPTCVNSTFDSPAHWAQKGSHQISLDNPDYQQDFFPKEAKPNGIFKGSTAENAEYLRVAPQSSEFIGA
DC50 [1] [nM],Dmax [1] [%],DC50 [2] [nM],SMILES,Dmax (%) H1975 # 28 DTC [2] [%]
3.64,95.4,0.612,"CCc1ccc2c(P(C)(C)=O)c(Nc3nc(Nc4cc(CC)c(N5CCC(N6CCN(CCc7cccc8c7n(C)c(=O)n8C7CCC(=O)NC7=O)CC6)CC5)cc4OC)ncc3Br)ccc2n1 (centres unmarked) [Example 451, 3-(4-(2-(4-(1-(4-((5-bromo-4-((5-(dimethylphosphoryl)-2-ethylquinolin-6-yl)amino)pyrimidin-2-yl)amino)-2-ethyl-5-methoxyphenyl)piperidin-4-yl)piperazin-1-yl)ethyl)-3-methyl-2-oxo-2,3-dihydro-1H-benzo[d]imidazol-1-yl)piperidine-2,6-dione]",70.68
3.96,89.7,0.863,"CCc1ccc2c(P(C)(C)=O)c(Nc3nc(Nc4cc(CC)c(N5CCC(N6CCN(CCc7c(F)ccc8c7n(C)c(=O)n8C7CCC(=O)NC7=O)CC6)CC5)cc4OC)ncc3Br)ccc2n1 (centres unmarked) [Example 452, 3-(4-(2-(4-(1-(4-((5-bromo-4-((5-(dimethylphosphoryl)-2-ethylquinolin-6-yl)amino)pyrimidin-2-yl)amino)-2-ethyl-5-methoxyphenyl)piperidin-4-yl)piperazin-1-yl)ethyl)-5-fluoro-3-methyl-2-oxo-2,3-dihydro-1H-benzo[d]imidazol-1-yl)piperidine-2,6-dione]",78.26
5.7,93.1,0.704,"CCc1ccc2c(P(C)(C)=O)c(Nc3nc(Nc4cc(CC)c(N5CCC(N6CCN(CCc7cccc8c7n(CC)c(=O)n8C7CCC(=O)NC7=O)CC6)CC5)cc4OC)ncc3Br)ccc2n1 (centres unmarked) [Example 453, 3-(4-(2-(4-(1-(4-((5-bromo-4-((5-(dimethylphosphoryl)-2-ethylquinolin-6-yl)amino)pyrimidin-2-yl)amino)-2-ethyl-5-methoxyphenyl)piperidin-4-yl)piperazin-1-yl)ethyl)-3-ethyl-2-oxo-2,3-dihydro-TH-benzo[d]imidazol-1-yl)piperidine-2,6-dione]",77.04
5.13,92.3,0.735,"CCc1ccc2c(P(C)(C)=O)c(Nc3nc(Nc4cc(CC)c(N5CCC(N6CCN(CCc7cccc8c7n(C7CC7)c(=O)n8C7CCC(=O)NC7=O)CC6)CC5)cc4OC)ncc3Br)ccc2n1 (centres unmarked) [Example 454, 3-(4-(2-(4-(1-(4-((5-bromo-4-((5-(dimethylphosphoryl)-2-ethylquinolin-6-yl)amino)pyrimidin-2-yl)amino)-2-ethyl-5-methoxyphenyl)piperidin-4-yl)piperazin-1-yl)ethyl)-3-cyclopropyl-2-oxo-2,3-dihydro-1H-benzo[d]imidazol-1-yl)piperidine-2,6-dione]",78.41
3.56,89.9,0.621,"CCc1ccc2c(P(C)(C)=O)c(Nc3nc(Nc4cc(CC)c(N5CCC(N6CCN(CCCc7ccc8c(c7)oc(=O)n8C7CCC(=O)NC7=O)CC6)CC5)cc4OC)ncc3Br)ccc2n1 (centres unmarked) [Example 456, 3-(6-(3-(4-(1-(4-((5-bromo-4-((5-(dimethylphosphoryl)-2-ethylquinolin-6-yl)amino)pyrimidin-2-yl)amino)-2-ethyl-5-methoxyphenyl)piperidin-4-yl)piperazin-1-yl)propyl)-2-oxobenzo[dloxazol-3(2H)-yl)piperidine-2,6-dione]",71.36
3.25,92.5,0.655,"CCc1ccc2c(P(C)(C)=O)c(Nc3nc(Nc4cc(CC)c(N5CCC(N6CCN(CCc7cc8oc(=O)n(C9CCC(=O)NC9=O)c8cc7F)CC6)CC5)cc4OC)ncc3Br)ccc2n1 (centres unmarked) [Example 457, 3-(6-(2-(4-(1-(4-((5-bromo-4-((5-(dimethylphosphoryl)-2-ethylquinolin-6-yl)amino)pyrimidin-2-yl)amino)-2-ethyl-5-methoxyphenyl)piperidin-4-yl)piperazin-1-yl)ethyl)-5-fluoro-2-oxobenzo[d]oxazol-3(2H)-yl)piperidine-2,6-dione]",74.18
132,90,38.8,"CCOc1cc(N2CCC(N3CCN(CCc4c(C)ccc5c4n(C)c(=O)n5C4CCC(=O)NC4=O)CC3)CC2)c(CC)cc1Nc1ncc(Br)c(Nc2ccc3nc(CC)ccc3c2P(C)(C)=O)n1 (centres unmarked) [Example 461, 3-(4-(2-(4-(1-(4-((5-bromo-4-((5-(dimethylphosphoryl)-2-ethylquinolin-6-yl)amino)pyrimidin-2-yl)amino)-5-ethoxy-2-ethylphenyl)piperidin-4-yl)piperazin-1-yl)ethyl)-3,5-dimethyl-2-oxo-2,3-dihydro-1H-benzo[d]imidazol-1-yl)piperidine-2,6-dione]",75.83
15.1,90.8,2.03,"CCOc1cc(N2CCC(N3CCN(C(=O)C4CN(c5cc(F)cc6c5n(C)c(=O)n6C5CCC(=O)NC5=O)C4)CC3)CC2)c(CC)cc1Nc1ncc(Br)c(Nc2ccc3nc(CC)ccc3c2P(C)(C)=O)n1 (centres unmarked) [Example 466, 3-(4-(3-(4-(1-(4-((5-bromo-4-((5-(dimethylphosphoryl)-2-ethylquinolin-6-yl)amino)pyrimidin-2-yl)amino)-5-ethoxy-2-ethylphenyl)piperidin-4-yl)piperazine-1-carbonyl)azetidin-1-yl)-6-fluoro-3-methyl-2-oxo-2,3-dihydro-1H-benzo[d]imidazol-1-yl)piperidine-2,6-dione]",72.67
12.5,91.3,1.83,"CCOc1cc(N2CCC(N3CCN(CC4CN(c5cc(F)cc6c5n(C)c(=O)n6C5CCC(=O)NC5=O)C4)CC3)CC2)c(CC)cc1Nc1ncc(Br)c(Nc2ccc3nc(CC)ccc3c2P(C)(C)=O)n1 (centres unmarked) [Example 467, 3-(4-(3-((4-(1-(4-((5-bromo-4-((5-(dimethylphosphoryl)-2-ethylquinolin-6-yl)amino)pyrimidin-2-yl)amino)-5-ethoxy-2-ethylphenyl)piperidin-4-yl)piperazin-1-yl)methyl)azetidin-1-yl)-6-fluoro-3-methyl-2-oxo-2,3-dihydro-1H-benzo[d]imidazol-1-yl)piperidine-2,6-dione]",76.06
36,83.9,1.98,"CCOc1cc(N2CCC(N3CCN(CCc4c(F)ccc5c4oc(=O)n5C4CCC(=O)NC4=O)CC3)CC2)c(CC)cc1Nc1ncc(Br)c(Nc2ccc3nc(CC)ccc3c2P(C)(C)=O)n1 (centres unmarked) [Example 471, 3-(7-(2-(4-(1-(4-((5-bromo-4-((5-(dimethylphosphoryl)-2-ethylquinolin-6-yl)amino)pyrimidin-2-yl)amino)-5-ethoxy-2-ethylphenyl)piperidin-4-yl)piperazin-1-yl)ethyl)-6-fluoro-2-oxobenzo[d]oxazol-3(2H)-yl)piperidine-2_6-dione]",73.66
19.6,86.9,0.945,"CCOc1cc(N2CCC(N3CCN(CCc4cc(F)cc5c4oc(=O)n5C4CCC(=O)NC4=O)CC3)CC2)c(CC)cc1Nc1ncc(Br)c(Nc2ccc3nc(CC)ccc3c2P(C)(C)=O)n1 (centres unmarked) [Example 472, 3-(7-(2-(4-(1-(4-((5-bromo-4-((5-(dimethylphosphoryl)-2-ethylquinolin-6-yl)amino)pyrimidin-2-yl)amino)-5-ethoxy-2-ethylphenyl)piperidin-4-yl)piperazin-1-yl)ethyl)-5-fluoro-2-oxobenzo[d]oxazol-3(2H)-yl)piperidine-2,6-dione]",80.01
